Values joined by “and” are separate entries in the source; they are usually repeats but may differ in a detail not shown here. Equal values may be shown once.
How the values were obtained:
U118 cells [1] = assay: Levels of SM in cell membranes, U118; assay type: cell-based, human; design: SM levels in the cell membrane (activation of enzyme EC 2.7.8.27): dose or concentration left out as unconfirmed; details: for SM levels in the cell membrane (activation of enzyme EC 2.7.8.27): U118, 24 hours
U118 cells [2] = assay: Cell growth inhibition, U118; assay type: cell-based, human; design: key to Effect (anti-proliferation effect): +: inhibition of cell growth; −: absence of effect; details: for IC50: U118, sodium salt form
Text: (§1) At this respect, concentrations which inhibit growth of tumour cells (IC50) are lower for the enantiomer S ([−]) in all studied tumour lines (Table 5). […] In all of the cases, the molecules employed were in the form of sodium salt.

SF767 cells = assay: Cell growth inhibition, SF767; assay type: cell-based, human; design: key to Effect (anti-proliferation effect): +: inhibition of cell growth; −: absence of effect; details: for IC50: SF767, sodium salt form
Text: as §1

A549 cells = assay: Cell growth inhibition, A549; assay type: cell-based, human; design: key to Effect (anti-proliferation effect): +: inhibition of cell growth; −: absence of effect
Text: as §1

Jurkat cells = assay: Cell growth inhibition, Jurkat; assay type: cell-based, human; design: key to Effect (anti-proliferation effect): +: inhibition of cell growth; −: absence of effect; details: for IC50: sodium salt form
Text: as §1

U937 cells = assay: Cell growth inhibition, U937; assay type: cell-based, human; design: key to Effect (anti-proliferation effect): +: inhibition of cell growth; −: absence of effect; details: for IC50: U937, sodium salt form
Text: as §1

MDA-MB-231 cells = assay: Cell growth inhibition, MDA-MB-231; assay type: cell-based, human; design: key to Effect (anti-proliferation effect): +: inhibition of cell growth; −: absence of effect; details: for IC50: MDA-MB-231, sodium salt form
Text: as §1

PC3 cells = assay: Cell growth inhibition, PC3; assay type: cell-based, human; design: key to Effect (anti-proliferation effect): +: inhibition of cell growth; −: absence of effect; details: for IC50: PC3, sodium salt form
Text: as §1

BXPC3 cells = assay: Cell growth inhibition, BXPC3; assay type: cell-based, human; design: key to Effect (anti-proliferation effect): +: inhibition of cell growth; −: absence of effect; details: for IC50: BXPC3, sodium salt form
Text: as §1

IMR90 cells = assay: Cell growth inhibition, IMR90; assay type: cell-based, human; design: key to Effect (anti-proliferation effect): +: inhibition of cell growth; −: absence of effect; details: for IC50: IMR90 non tumor fibroblast, sodium salt form
Text: as §1

MRC-5 cells = assay: Cell growth inhibition, MRC-5; assay type: cell-based, human; design: key to Effect (anti-proliferation effect): +: inhibition of cell growth; −: absence of effect; details: for IC50: MRC-5 non tumor fibroblast, sodium salt form
Text: as §1

A375 cells = assay: Cell growth inhibition, A375; assay type: cell-based, human; details: A375, sodium salt form
Text: as §1

[3] = test system: human glioma (SF767) cells; assay: Volume of human glioma (SF767) tumours in immuno-depressed mice; assay type: in vivo; details: for Effect: variation in the size of the tumour compared with untreated animals: 15 days; for decrease in the volume of the tumour: 200 mg/kg, 15 days orally
Text: This example recounts the study carried out on immuno-depressed mice infected with human glioma (SF767) cells and treated for 15 days (orally) with the indicated dose (Table 3).

[4] = test system: human lung cancer cells (A549); assay: Volume of tumours derived from human lung cancer cells (A549) in mice; assay type: in vivo; details: 600 mg/kg·day, 15 days, orally
Description: A. Effect on the volume of tumours derived from human lung cancer cells (A549): immuno-depressed mice were infected with human lung cancer cells and 7 days later (when the tumours were observable), treatments started with vehicle (control), 2OHOA racemic (+/−), and optic isomers [−]2OHOA and [+]2OHOA (600 mg/kg·day, 15 days, orally). The bars correspond to values of an average±EEM (n=3-5) of the increase in volume (mm^3) of the tumours (n=6).
On the other hand, we investigated the antitumoral activity of these compounds in different types of human cancer (see Tables 2, 4 and 5). […] Furthermore, the activity of these enantiomers was proven against a vast variety of human cancers of different nature, since it can be stated that enantiomers [−] of 2-hydroxylated fatty acids have a high potency in the treatment of any type of cancer.

Body weight of SHR rats = assay type: in vivo; details: 600 mg/kg·day, 5 days, orally
Description: C. Effect on body weight: SHR rats were treated with 2OHOA racemic (+/−) and its optic isomers [−]2OHOA and [+]2OHOA (600 mg/kg·day, 5 days, orally). […] Values of average±EEM body weight (abscises axis, n=6) are shown.
(§2) What is more, we studied the effect of the isomers above on arterial pressure, body weight, and the level of cholesterol, triglycerides and glycemia (glucose in plasma) in SHR rats SHR (FIGS. 8B, 8C and 8D and 8E). […] Similarly, during 1 and 5 days of treatment, rats treated with the racemic loosed 11 gram of weight (approximately a 3% of their body weight), whereas animals of the group treated with enantiomer [−]2OHOA loosed 21 grams and animals of the group treated with enantiomer [+]2OHOA only loosed 7 grams of weight. On the other hand, a higher effect of enantiomer [+]2OHOA in the reduction of triglyceride (TG) and total cholesterol (CHOt) levels was observed (FIG. 8D) At this respect, plasmatic basal levels of TG in SHR rats are of 108 mg/dl and were reduced to 56 mg/dl after 2 weeks treatment […]. On the other hand, treatment with enantiomer [+]2OHOA inducted a reduction of plasmatic TG levels to 47 mg/dl, whereas enantiomer [−]2OHOA only produced a modest reduction to 81 mg/dl. In parallel, levels of CHOt were reduced from 73 mg/dl to 43 mg/dl (racemic), 36 mg/dl (enantiomer [+]2OHOA) and 59 mg/dl (enantiomer [−]2OHOA), respectively.

[5] = Triglyceride and total cholesterol levels in SHR rats; assay type: in vivo; details: 600 mg/kg every 12 h, orally; for CHOt levels after treatment: 15 days, basal 73 mg/dl; for plasmatic TG levels after treatment: 2 weeks, basal 108 mg/dl
Description: D. Effects on cholesterol and triglyceride levels: SHR rats were treated with 2OHOA racemic (+/−) and its optic isomers [−]2OHOA and [+]2OHOA (600 mg/kg every 12 h, 15 days, orally). […] Values of average±EEM seric levels of lipids expressed as mg/dl (ordinate axis; n=6) are shown.
as §2

[6] = Plasmatic glucose levels in SHR rats; assay type: in vivo; details: 600 mg/kg, 12 h, 15 days, by mouth
Description: E. Effects on […] (plasmatic glucose levels): SHR rats were treated with vehicle (control), racemic 2OHOA and their optical isomers [−] 2OHOA and [+]2OHOA (600 mg/kg, 12 h, 15 days, by mouth). The racemic compound and the [−]
as §2

Compound	SM levels in the cell membrane (activation of enzyme EC 2.7.8.27) (U118 cells [1])	Effect: variation in the size of the tumour compared with untreated animals ([3]; 50 mg/kg orally)	Effect: variation in the size of the tumour compared with untreated animals ([3]; 75 mg/kg orally)	Effect: variation in the size of the tumour compared with untreated animals ([3]; 100 mg/kg orally) [%]	Effect: variation in the size of the tumour compared with untreated animals ([3]; 150 mg/kg orally)	Effect: variation in the size of the tumour compared with untreated animals ([3]; 200 mg/kg orally) [%]	decrease in the volume of the tumour [3] [%]	Effect: variation in the size of the tumour compared with untreated animals ([3]; 400 mg/kg orally) [%]	Effect: variation in the size of the tumour compared with untreated animals ([3]; 600 mg/kg orally)	volume of tumours derived from A549 cells [4]	plasma glucose levels (glycemia) [6]	IC50 (U118 cells [2]) [µM]	IC50 (SF767 cells) [µM]	IC50 (A549 cells; A549, sodium salt form) [µM]	IC50 (Jurkat cells) [µM]	IC50 (U937 cells) [µM]	IC50 (MDA-MB-231 cells) [µM]	IC50 (PC3 cells) [µM]	IC50 (BXPC3 cells) [µM]	IC50 (IMR90 cells) [µM]	also measured
CCCCCCCC/C=C\CCCCCCC(O)C(=O)O (racemic) [2OHOA, 2-hydroxyoleic acid]	significant increases in SM levels	+2%	−7%	−8	−17%	−23	23	−39	−37%	significant reductions	significant reductions										synthesis of SM (U118 cells [1]; U118, 200 μM, 24 hours): significant increase; IC50 (U118 cells [2]; Homo sapiens): 142 µM; IC50 (SF767 cells; Homo sapiens): 215 µM; IC50 (A549 cells; Homo sapiens, A549, A549, sodium salt form): 94.1 ± 8.8 µM; IC50 (Jurkat cells; Homo sapiens): 62.9 µM; IC50 (U937 cells; Homo sapiens, U-937): 183 µM; IC50 (MDA-MB-231 cells; Homo sapiens): 244 µM; IC50 (PC3 cells; Homo sapiens, PC-3): 138 µM; IC50 (BXPC3 cells; Homo sapiens, BXPC-3): 98.3 µM; IC50 (IMR90 cells; Homo sapiens, IMR-90): > 5000 µM; IC50 (MRC-5 cells; Homo sapiens, MRC5): > 5000 µM; IC50 (A375 cells; Homo sapiens, A-375): 273 µM; loss of body weight (Body weight of SHR rats): 11 gram; loss of body weight as share of body weight (Body weight of SHR rats): ~3%; CHOt levels after treatment [5]: 43 mg/dL
CCCCCCCC/C=C\CCCCCCC(O)C(=O)O (centres unmarked) [[+]2OHOA] [[+]HOOC—HOCH—(CH2)6—(CH═CH—CH2)1—(CH2)6—CH3]	decrease in the level of SM in membranes	−2%	+7%	−3	+1%	−4		−2	+3%	no significant changes in the volume of tumours	reduction without statistical significance	212	304	133	97.2	214	328	233	154	> 5000	IC50 (A549 cells; A549, sodium salt form, listed as [+]2OH18:1): 133 ± 9.8 µM; IC50 (MRC-5 cells): > 5000 µM; IC50 (A375 cells): 407 µM; activity on tumour volume after 15 days of treatment ([3]; indicated doses (50-600 mg/kg), orally): showed no activity; loss of body weight (Body weight of SHR rats; 600 mg/kg): 7 gram; plasmatic TG levels after treatment ([5]; 600 mg/kg): 56 mg/dL and 47 mg/dL; CHOt levels after treatment ([5]; 600 mg/kg): 36 mg/dL
CCCCCCCC/C=C\CCCCCCC(O)C(=O)O (centres unmarked) [[−]2OHOA] [[−] HOOC—HOCH—(CH2)6—(CH═CH—CH2)1—(CH2)6—CH3]	even greater increases in SM levels	−35%	−54%	−65	−78%	−89	89	−91	−86%	significant reductions compared with all the other treatments	significant reductions	97.8	102	52.6	35.7	136	145	87	61.8	> 5000	% SM after treatment (U118 cells [1]; U118, 200 μM [−]2OHOA): 28%; Effect (anti-proliferation effect) (U118 cells [2]; U118): +; Effect (anti-proliferation effect) (SF767 cells; SF767): +; Effect (anti-proliferation effect) (A549 cells; A549): +; IC50 (A549 cells; A549, sodium salt form, listed as [−]2OH18:1): 52.6 ± 9.5 µM; Effect (anti-proliferation effect) (Jurkat cells): +; Effect (anti-proliferation effect) (U937 cells; U937): +; Effect (anti-proliferation effect) (MDA-MB-231 cells; MDA-MB-231): +; Effect (anti-proliferation effect) (PC3 cells; PC3): +; Effect (anti-proliferation effect) (BXPC3 cells; BXPC3): +; Effect (anti-proliferation effect) (IMR90 cells; IMR90): −; Effect (anti-proliferation effect) (MRC-5 cells; MRC-5): −; IC50 (MRC-5 cells): > 5000 µM; IC50 (A375 cells): 163 µM; loss of body weight (Body weight of SHR rats; 600 mg/kg): 21 gram; plasmatic TG levels after treatment ([5]; 600 mg/kg): 81 mg/dL; CHOt levels after treatment ([5]; 600 mg/kg): 59 mg/dL

Reference: US9359281B2, “Enantiomers of 2-hydroxy derivatives of fatty acids” (UNIVERSITAT DE LES ILLES BALEARS, priority 2011, dated 2016)
